Laboratory results: patent US9974761B2, “Medications for deposition on biological surfaces” (The Procter & Gamble Company, priority 2014, dated 2018)

Tests used:
human TRPM8 = test: TRPM8 Protocol-FLIPR Assay (intracellular Ca2+); format: cell-based; conditions: for TRPM8 Time Course Activity 50 sec % of WS5 / TRPM8 Time Course Activity 3 min % of WS5 / TRPM8 Time Course Activity 5 min % of WS5 / TRPM8 Time Course Activity 10 min % of WS5: vs 30 uM WS-5; for TRPM8 Time Course Activity 3 min: fluorescence at 3 min; for TRPM8 Time Course Activity 5 min: fluorescence at 5 min; for TRPM8 Time Course Activity 10 min: fluorescence at 10 min
Procedure: To determine whether TRPM8 is activated, the intracellular calcium ion (Ca^2+) level was measured from transfected cells with the TRPM8 receptor sequence (SEQ ID NO: 3). HEK-293 (human embryonic kidney) cells stably transfected with human TRPM8 were grown in 15 ml growth medium (high glucose DMEM (Dulbecco's Modification of Eagle's Medium) supplemented with 10% FBS (fetal bovine serum), 100 ug/ml penicillin/streptomycin, 5 μg/ml blasticindin, and 100 μg/ml zeocin) in a 75 cm^2 flask for 3 days at 37° C. in a mammalian cell culture incubator set at 5% CO2 Cells were detached with addition of 2 ml of trypsin-EDTA buffer (GIBCO® 25200, Invitrogen, Grand Island, N.Y.) for about 2-3 min. Trypsin was inactivated by addition of 8 ml growth medium. Cells were transferred to a 50 ml tube and centrifuged at 850 rpm for 3 minutes to remove medium. After centrifugation, a pellet of cells was formed in the bottom of the tube separating them from the supernatant solution. The supernatant was discarded and the cell pellet was suspended in 1 ml of fresh growth medium to which 5 μl (12.5 μg) of Fluo-4 AM (Molecular Probes, Inc., Eugene, Oreg.) calcium indicator was added and incubated for 30 min with gentle shaking. Fluo-4 AM is a fluorescent dye used for quantifying cellular Ca^2+ concentrations in the 100 nM to 1 microM range. At the end of 30 minutes, 45 ml of assay buffer (1× HBSS (Hank's Balanced Salt Solution), 20 mM HEPES (4-(2-Hydroxyethyl)-1-piperazineethanesulfonic acid)) was added to wash cells and the resulting mixture was then centrifuged at 850 rpm for 3 minutes to remove excess buffer and Fluo-4 AM calcium indicator.
The pelleted cells were re-suspended in 10 ml assay buffer and 90 μl aliquots (˜50,000 cells) per well delivered to a 96-well assay plate containing 10 μl of test compounds (1 mM in assay buffer, […]) or buffer control and incubated at room temperature for 30 minutes. After 30 minutes, a plate was placed into a fluorometric imaging plate reader (FLIPR384 from Molecular Devices, Sunnyvale, Calif.) and basal fluorescence recorded (excitation wave length 488 nm and emission wave length 510 nm). Then 20 μl of […] of TRPM8 agonist WS5 coolant in the assay buffer was added and fluorescence recorded. For determining the direct effect of test compounds on TRPM8, fluorescence was measured immediately after addition of each compound (TABLES 2 and 3). Additional discussion of the FLIPR method can be found in Smart et al., Characterization using FLIPR of human vanilloid VR1 receptor pharmacology, European Journal of Pharmacology 417, 51-58 (2001) and Liu et al., Development and validation of a platelet calcium flux assay using a fluorescent imaging plate reader, Analytical Biochemistry 357, 216-224 (2006).
TRPM8 activation was determined by measuring intracellular calcium ion (Ca^2+) level from transfected cells with the TRPM8 receptor gene, as described in EXAMPLE 1, the results of which are shown in TABLES 4 and 5.

[1] = Sensation reported by panelists; format: in vivo; conditions: perceived sensation, in words

CC(C)[C@@H]1CC[C@@H](C)C[C@H]1C(=O)NCC(NC(=O)[C@@H](C)N)c1ccccc1 (single isomer, unassigned) [Compound 28 fraction 1]
TRPM8 Time Course Activity 50 sec % of WS5 (human TRPM8; dose 6.1 nM): 8.8%
TRPM8 Time Course Activity 3 min % of WS5 (human TRPM8; dose 6.1 nM): 36.5%
TRPM8 Time Course Activity 5 min % of WS5 (human TRPM8; dose 6.1 nM): 46.7%
TRPM8 Time Course Activity 10 min % of WS5 (human TRPM8; dose 6.1 nM): 56.1%
TRPM8 Time Course Activity 3 min (human TRPM8; dose 6.1 nM): 3452.0
TRPM8 Time Course Activity 5 min (human TRPM8; dose 6.1 nM): 4426.0
TRPM8 Time Course Activity 10 min (human TRPM8; dose 6.1 nM): 5375.0
TRPM8 Time Course Activity 50 sec % of WS5 (human TRPM8; dose 12.2 nM): 30.0%
TRPM8 Time Course Activity 3 min % of WS5 (human TRPM8; dose 12.2 nM): 93.0%
TRPM8 Time Course Activity 5 min % of WS5 (human TRPM8; dose 12.2 nM): 103.8%
TRPM8 Time Course Activity 10 min % of WS5 (human TRPM8; dose 12.2 nM): 115.5%
TRPM8 Time Course Activity 3 min (human TRPM8; dose 12.2 nM): 8783.0
TRPM8 Time Course Activity 5 min (human TRPM8; dose 12.2 nM): 9830.0
TRPM8 Time Course Activity 10 min (human TRPM8; dose 12.2 nM): 11065.0
TRPM8 Time Course Activity 50 sec % of WS5 (human TRPM8; dose 24.4 nM): 19.2%
TRPM8 Time Course Activity 3 min % of WS5 (human TRPM8; dose 24.4 nM): 67.8%
TRPM8 Time Course Activity 5 min % of WS5 (human TRPM8; dose 24.4 nM): 80.2%
TRPM8 Time Course Activity 10 min % of WS5 (human TRPM8; dose 24.4 nM): 92.7%
TRPM8 Time Course Activity 3 min (human TRPM8; dose 24.4 nM): 6405.0
TRPM8 Time Course Activity 5 min (human TRPM8; dose 24.4 nM): 7593.0
TRPM8 Time Course Activity 10 min (human TRPM8; dose 24.4 nM): 8879.0
TRPM8 Time Course Activity 50 sec % of WS5 (human TRPM8; dose 48.8 nM): 29.0%
TRPM8 Time Course Activity 3 min % of WS5 (human TRPM8; dose 48.8 nM): 84.8%
TRPM8 Time Course Activity 5 min % of WS5 (human TRPM8; dose 48.8 nM): 94.9%
TRPM8 Time Course Activity 10 min % of WS5 (human TRPM8; dose 48.8 nM): 106.8%
TRPM8 Time Course Activity 3 min (human TRPM8; dose 48.8 nM): 8017.0
TRPM8 Time Course Activity 5 min (human TRPM8; dose 48.8 nM): 8983.0
TRPM8 Time Course Activity 10 min (human TRPM8; dose 48.8 nM): 10224.0
TRPM8 Time Course Activity 50 sec % of WS5 (human TRPM8; dose 97.6 nM): 39.4%
TRPM8 Time Course Activity 3 min % of WS5 (human TRPM8; dose 97.6 nM): 103.1%
TRPM8 Time Course Activity 5 min % of WS5 (human TRPM8; dose 97.6 nM): 113.1%
TRPM8 Time Course Activity 10 min % of WS5 (human TRPM8; dose 97.6 nM): 125.4%
TRPM8 Time Course Activity 3 min (human TRPM8; dose 97.6 nM): 9744.0
TRPM8 Time Course Activity 5 min (human TRPM8; dose 97.6 nM): 10711.0
TRPM8 Time Course Activity 10 min (human TRPM8; dose 97.6 nM): 12011.0
TRPM8 Time Course Activity 50 sec % of WS5 (human TRPM8; dose 195 nM): 53.9%
TRPM8 Time Course Activity 3 min % of WS5 (human TRPM8; dose 195 nM): 116.8%
TRPM8 Time Course Activity 5 min % of WS5 (human TRPM8; dose 195 nM): 124.9%
TRPM8 Time Course Activity 10 min % of WS5 (human TRPM8; dose 195 nM): 136.2%
TRPM8 Time Course Activity 3 min (human TRPM8; dose 195 nM): 11037.0
TRPM8 Time Course Activity 5 min (human TRPM8; dose 195 nM): 11824.0
TRPM8 Time Course Activity 10 min (human TRPM8; dose 195 nM): 13046.0
TRPM8 Time Course Activity 3 min % of WS5 (human TRPM8; dose 390 nM): 120.4%
TRPM8 Time Course Activity 5 min % of WS5 (human TRPM8; dose 390 nM): 126.4%
TRPM8 Time Course Activity 10 min % of WS5 (human TRPM8; dose 390 nM): 137.0%
TRPM8 Time Course Activity 3 min (human TRPM8; dose 390 nM): 11373.0
TRPM8 Time Course Activity 5 min (human TRPM8; dose 390 nM): 11968.0
TRPM8 Time Course Activity 10 min (human TRPM8; dose 390 nM): 13121.0
TRPM8 Time Course Activity 3 min % of WS5 (human TRPM8; dose 781 nM): 128.9%
TRPM8 Time Course Activity 5 min % of WS5 (human TRPM8; dose 781 nM): 133.3%
TRPM8 Time Course Activity 10 min % of WS5 (human TRPM8; dose 781 nM): 142.7%
TRPM8 Time Course Activity 3 min (human TRPM8; dose 781 nM): 12182.0
TRPM8 Time Course Activity 5 min (human TRPM8; dose 781 nM): 12618.0
TRPM8 Time Course Activity 10 min (human TRPM8; dose 781 nM): 13661.0
TRPM8 Time Course Activity 3 min % of WS5 (human TRPM8; dose 1.563 uM): 128.4%
TRPM8 Time Course Activity 5 min % of WS5 (human TRPM8; dose 1.563 uM): 132.0%
TRPM8 Time Course Activity 10 min % of WS5 (human TRPM8; dose 1.563 uM): 140.4%
TRPM8 Time Course Activity 3 min (human TRPM8; dose 1.563 uM): 12135.0
TRPM8 Time Course Activity 5 min (human TRPM8; dose 1.563 uM): 12499.0
TRPM8 Time Course Activity 10 min (human TRPM8; dose 1.563 uM): 13440.0
TRPM8 Time Course Activity 3 min % of WS5 (human TRPM8; dose 3.125 uM): 133.4%
TRPM8 Time Course Activity 5 min % of WS5 (human TRPM8; dose 3.125 uM): 136.7%
TRPM8 Time Course Activity 10 min % of WS5 (human TRPM8; dose 3.125 uM): 144.6%
TRPM8 Time Course Activity 3 min (human TRPM8; dose 3.125 uM): 12602.0
TRPM8 Time Course Activity 5 min (human TRPM8; dose 3.125 uM): 12939.0
TRPM8 Time Course Activity 10 min (human TRPM8; dose 3.125 uM): 13850.0
TRPM8 Time Course Activity 3 min % of WS5 (human TRPM8; dose 6.25 uM): 135.2%
TRPM8 Time Course Activity 5 min % of WS5 (human TRPM8; dose 6.25 uM): 138.3%
TRPM8 Time Course Activity 10 min % of WS5 (human TRPM8; dose 6.25 uM): 147.3%
TRPM8 Time Course Activity 3 min (human TRPM8; dose 6.25 uM): 12775.0
TRPM8 Time Course Activity 5 min (human TRPM8; dose 6.25 uM): 13098.0
TRPM8 Time Course Activity 10 min (human TRPM8; dose 6.25 uM): 14102.0
TRPM8 Time Course Activity 3 min % of WS5 (human TRPM8; dose 12.5 uM): 133.3%
TRPM8 Time Course Activity 5 min % of WS5 (human TRPM8; dose 12.5 uM): 137.3%
TRPM8 Time Course Activity 10 min % of WS5 (human TRPM8; dose 12.5 uM): 145.6%
TRPM8 Time Course Activity 3 min (human TRPM8; dose 12.5 uM): 12591.0
TRPM8 Time Course Activity 5 min (human TRPM8; dose 12.5 uM): 12997.0
TRPM8 Time Course Activity 10 min (human TRPM8; dose 12.5 uM): 13947.0
TRPM8 Time Course Activity 3 min % of WS5 (human TRPM8; dose 25 uM): 137.8%
TRPM8 Time Course Activity 5 min % of WS5 (human TRPM8; dose 25 uM): 141.0%
TRPM8 Time Course Activity 10 min % of WS5 (human TRPM8; dose 25 uM): 149.8%
TRPM8 Time Course Activity 3 min (human TRPM8; dose 25 uM): 13020.0
TRPM8 Time Course Activity 5 min (human TRPM8; dose 25 uM): 13354.0
TRPM8 Time Course Activity 10 min (human TRPM8; dose 25 uM): 14341.0
TRPM8 Time Course Activity 3 min % of WS5 (human TRPM8; dose 50 uM): 130.1%
TRPM8 Time Course Activity 5 min % of WS5 (human TRPM8; dose 50 uM): 133.7%
TRPM8 Time Course Activity 10 min % of WS5 (human TRPM8; dose 50 uM): 137.5%
TRPM8 Time Course Activity 3 min (human TRPM8; dose 50 uM): 12295.0
TRPM8 Time Course Activity 5 min (human TRPM8; dose 50 uM): 12654.0
TRPM8 Time Course Activity 10 min (human TRPM8; dose 50 uM): 13169.0
TRPM8 Time Course Activity 3 min % of WS5 (human TRPM8; dose 100 uM): 132.5%
TRPM8 Time Course Activity 5 min % of WS5 (human TRPM8; dose 100 uM): 135.7%
TRPM8 Time Course Activity 10 min % of WS5 (human TRPM8; dose 100 uM): 137.7%
TRPM8 Time Course Activity 3 min (human TRPM8; dose 100 uM): 12520.0
TRPM8 Time Course Activity 5 min (human TRPM8; dose 100 uM): 12844.0
TRPM8 Time Course Activity 10 min (human TRPM8; dose 100 uM): 13187.0
sensation (cooling, warming, burning) [1]: intense cooling
